Test results published in US20250195525A1, “ANGIOTENSIN II RECEPTOR ANTAGONIST FOR THE PREVENTION OF SYSTEMIC DISEASES IN CATS” (Boehringer Ingelheim Vetmedica GmbH, priority 2023, published 2025).

Tests used:
[1] = test system: angiotensin II receptor 1; test: Angiotensin II induced blood pressure response in laboratory cats; type: in vivo, cat
From the text: Moreover, a study in laboratory cats was established to investigate the Angiotensin II induced increase in diastolic blood pressure prior to and after administration of telmisartan. This test was established to estimate the potency as well as the duration of action of sartans, in particular of telmisartan in cats.

cats with CKD = test: placebo controlled field trial in client-owned cats with CKD: progression of SBP; type: in vivo, cat; settings: 1 mg/kg body weight
Experimental: This prospective, placebo controlled, randomized, double-blind, multicenter, multinational field study enrolled client-owned cats that were presented in the normal course of veterinary practice to evaluate safety and efficacy of telmisartan on progression-free survival time in cats with CKD compared to placebo. In this study 545 cats were randomly assigned to telmisartan (1 mg/kg body weight) or placebo in a ratio of 1:1.
At least two weeks before the start of the field study, creatinine value and Urine Specific Gravity (USG) were determined. Only cats were included in the study which were diagnosed with CKD, meaning a creatinine value ≥1.9 mg/dl (168 μmol/L) and <5.0 mg/dL (440 μmol/L) and a USG of <1.035.
At all visit timepoints, SBP was recorded prior to performing any other procedures scheduled for the animal during the visit. • 5 SBP readings were taken following a ≥10 minute acclimation period. • The highest and the lowest SBP were excluded and a mean of the remaining 3 SBPs was used to obtain the mean SBP for that visit. Visits were scheduled on Day 0, 30, 90, 180, 270, 365, 450, 540, 630, 730, 810, 900, 990, 1080, 1170, 1260, 1350, 1440 (each ±7) and, if applicable, additional visits every 3 months (+7 days).

[2] = cat, in vivo
[3] = human patients, high dose of 160 mg daily (80 mg twice daily); cited from earlier work

For CCCc1nc2c(C)cc(-c3nc4ccccc4n3C)cc2n1Cc1ccc(-c2ccccc2C(=O)O)cc1 [Telmisartan, 4′-[2-n-propyl-4-methyl-6-(1-methylbenzimidazol-2-yl)-benzimidazol-1-ylmethyl]-biphenyl-2-carboxylic acid], the “inhibition of the blood pressure response” value ([1]; cats, doses of less than 0.05 mg per kg body weight, majority of the tested cats) was “about 75%”, the “diastolic blood pressure responses to increasing intravenous doses of Angiotensin II” value ([1]; laboratory cats, approximately 24 hours after the last oral dosing, target dose compared with Placebo) was “significantly reduced” and the “Time to event for progression of SBP (up to 160 mmHg), median no. of days” value (cats with CKD) was 446.0 days. For the same compound, the “delay in reaching the endpoint of SBP of 160 mmHg versus placebo (median number of days)” value (cats with CKD; compared to placebo) was 84.5 days, the “Mean probability for progression of SBP” value (cats with CKD; progression = SBP ≥160 mmHg and increase of >20 mmHg compared to baseline) was 0.035 and the “mean V/f oral (second mention, after the intravenous values)” value [2] was 8.8 L/kg. For the same compound, the “mean V/f oral” value ([2]; po) was 20.4 L/kg, the “plasma level (Cmax±SD)” value [3] was “about 2800±2400 ng/ml” and the AUC (in vivo; iv) was 385 ng·h/mL. It also gave an AUC (in vivo; po) of 150 ng·h/mL.
